Earlier results, collected in patent US20230321241A1, “CANCER PEPTIDE VACCINE AND METHOD OF PREPARING THE SAME” (BrightPath Biotherapeutics Co., Ltd., priority 2020, published 2023).

Tested on: PD-L1-Positive Non-Small-Cell Lung Cancer
Settings: pembrolizumab alone in similar subjects; cited from earlier work

pembrolizumab: anti-PD-1 antibody (Merck & Co., Inc.)
response rate: 45%
